Measured values taken from paper PMC9716094, “Synthesis of novel amidines via one-pot three component reactions: Selective topoisomerase I inhibitors with antiproliferative properties” (Frontiers in Chemistry, 2022).

Key:
[1] = Cell viability assay (MTT) on normal cell line; format: cell-based; details: human, MCF-10A mammary epithelial cells, 50 µM of compound;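 further: values are percent cell viability not percent inhibition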
Experimental: To study the effect of 4a-l and 5a-c on normal cell lines, a cell viability assay was done using the MCF-10A (human mammary gland epithelial) cell line ([Abdelbaset et al., 2019]; [Al-Wahaibi et al., 2020]). This study uses a concentration of 50 µM of the investigated compound for 4 days, after which cell viability is evaluated.
To study the effect of 4a-l and 5a-c on normal cell lines, a cell viability assay was done using the MCF-10A (human mammary gland epithelial) cell line ([Abdelbaset et al., 2019]; [Al-Wahaibi et al., 2020]). See Supplementary Appendix S1A.
MTT assay was carried out to study the effect of compounds on mammary epithelial cells (MCF-10A). The medium in which cells were propagated contained Dulbecco's modified Eagle's medium (DMEM)/ Ham's F-12 medium (1:1) supplemented with epidermal growth factor (20 ng/mL), hydrocortisone (500 ng/mL), insulin (10 μg/mL), 2 mM glutamine and 10% fetal calf serum. After every 2-3 days, the cells were passaged using trypsin ethylenediamine tetra acetic acid (EDTA). The cells were seeded at a density of 10^4 cells mL^-1 in flat-bottomed culture plates containing 96 wells each. After 24 h, medium was removed from the plates and the compounds in (in 0.1% DMSO) were added (in 200 μL medium to yield a final concentration of 0.1% v/v) to the wells of plates. A single compound was designated with four wells followed by incubation of plates for 96h at 37°C. After incubation, medium was removed completely from the plates followed by addition of MTT (0.4 mg/mL in medium) to each well and subsequent incubation of plates for 3h. MTT (along with the medium) was removed and DMSO (150μL) was added to each well of the culture plates, followed by vortexing and subsequent measurement of absorbance (at 540 nm) using microplate reader. The data are shown as percentage inhibition of proliferation in comparison with controls containing 0.1% DMSO.

[2] = tested on: Panc-1 (pancreas cancer cell line); experiment: Antiproliferative assay, Panc-1; format: cell-based; details: Homo sapiens, read-out: Antiproliferative activity IC50 ± SEM, Panc-1
Source text: (§1) See Supplementary Appendix S1A.
(§2) DMSO (0.1%) was used as control.

[3] = tested on: MCF-7 (breast cancer cell line); experiment: Antiproliferative assay, MCF-7; format: cell-based; details: Homo sapiens, MCF7; read-out: Antiproliferative activity IC50 ± SEM, MCF-7
Source text: as §1, §2

[4] = tested on: HT-29 (colon cancer cell line); experiment: Antiproliferative assay, HT-29; details: Homo sapiens, HT-29, read-out: Antiproliferative activity IC50 ± SEM, HT-29
Experimental: (§4) The IC50 of each compound was calculated using doxorubicin as the reference.
(§5) To explore the antiproliferative potential of compounds MTT assay was performed according to previously reported procedure using different cell lines to explore the antiproliferative potential of compounds propidium iodide fluorescence assay was performed using different cell lines. To calculate the total nuclear DNA, a fluorescent dye (propidium iodide, PI) is used which can attach to the DNA, thus offering a quick and precise technique. PI cannot pass through the cell membrane and its signal intensity can be considered as directly proportional to quantity of cellular DNA. Cells whose cell membranes are damaged or have changed permeability are counted as dead ones. The assay was performed by seeding the cells of different cell lines at a density of 3000-7500 cells/well (in 200µl medium) in culture plates followed by incubation for 24h at 37 °C in humidified 5% CO2/95% air atmospheric conditions. The medium was removed; the compounds were added to the plates at 10 µM concentrations (in 0.1% DMSO) in triplicates, followed by incubation for 48 h. DMSO (0.1%) was used as control. After incubation, medium was removed followed by the addition of PI (25 µl, 50µg/mL in water/medium) to each well of the plates. At -80 °C, the plates were allowed to freeze for 24 h, followed by thawing at 25 °C. A fluorometer (Polar-Star BMG Tech) was used to record the readings at excitation and emission wavelengths of 530 and 620 nm for each well. The percentage cytotoxicity of compounds was calculated using the following formula:

[5] = target: T1, recombinant human DNA topo I (Homo sapiens, UniProt P11387); experiment: Topo I inhibitory assay (pBR322 relaxation); format: biochemical
T1 construct: purchased Topo GEN INC., USA
T1 sequence (P11387 1-765): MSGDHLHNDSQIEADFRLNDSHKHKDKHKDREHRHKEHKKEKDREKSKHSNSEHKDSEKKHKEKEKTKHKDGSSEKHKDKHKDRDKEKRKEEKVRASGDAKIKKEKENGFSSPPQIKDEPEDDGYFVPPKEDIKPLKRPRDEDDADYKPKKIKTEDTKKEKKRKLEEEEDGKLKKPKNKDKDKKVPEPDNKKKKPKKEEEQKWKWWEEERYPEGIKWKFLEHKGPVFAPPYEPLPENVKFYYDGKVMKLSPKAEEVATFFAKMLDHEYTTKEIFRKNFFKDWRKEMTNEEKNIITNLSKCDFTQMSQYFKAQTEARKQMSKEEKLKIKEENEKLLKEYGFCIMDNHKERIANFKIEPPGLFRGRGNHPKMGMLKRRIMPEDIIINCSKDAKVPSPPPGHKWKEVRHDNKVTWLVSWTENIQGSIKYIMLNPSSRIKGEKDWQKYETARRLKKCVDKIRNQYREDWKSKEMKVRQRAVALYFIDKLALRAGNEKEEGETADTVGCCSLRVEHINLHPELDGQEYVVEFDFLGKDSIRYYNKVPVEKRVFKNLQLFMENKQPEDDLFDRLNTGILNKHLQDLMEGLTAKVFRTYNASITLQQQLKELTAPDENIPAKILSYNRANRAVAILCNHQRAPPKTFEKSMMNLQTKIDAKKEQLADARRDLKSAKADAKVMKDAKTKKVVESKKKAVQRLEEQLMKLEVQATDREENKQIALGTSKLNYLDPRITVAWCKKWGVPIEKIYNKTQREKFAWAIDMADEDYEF
Experimental: (§3) All the tested compounds were dissolved in DMSO and the DNA topoisomerase I and II inhibitory activity of each compound was measured as follows according to previously reported methods. Mixture comprising of 100 ng supercoiled pBR322 plasmid DNA (Thermo Scientific, USA) and 0.2 ~ 1 unit of recombinant human DNA topo I (Topo GEN INC., USA) or topo IIα (USB Corp., USA) was incubated with or without the prepared compounds in the assay buffer (For topo I, 10 mM Tris-HCl (pH 7.9), 150 mM NaCl and 0.1% BSA, 0.1 mM spermidine and 5% glycerol; for topo II, 10 mM Tris-HCl (pH 7.9), 50 mM NaCl, 50 mM KCl, 5 mM MgCl2, 1 mM EDTA, 1 mM ATP and […] BSA) for 30 min at 37 ◦C. The reaction with final volume of 10 μL was stopped by adding the topo stop buffer (For topo I, 10% SDS solution containing 0.2% bromophenol blue, 0.2% xylene cyanol and 30% glycerol; for topo II, 7 mM EDTA). The reaction products were electrophoresed on 0.8% agarose gel at 50 V for 1 h with TAE electrophoresis buffer. The gels were stained in an EtBr solution (0.5 mg/mL) and visualized by transillumination with UV light and were quantitated using Alpha Tech ImagerTM (Alpha Innotech Corp., USA).

topo IIα = target: T2, topo IIα (Homo sapiens, UniProt P11388); experiment: Topo IIα inhibitory assay (pBR322 relaxation); format: biochemical
T2 construct: purchased USB Corp., USA
T2 sequence (P11388 whole entry): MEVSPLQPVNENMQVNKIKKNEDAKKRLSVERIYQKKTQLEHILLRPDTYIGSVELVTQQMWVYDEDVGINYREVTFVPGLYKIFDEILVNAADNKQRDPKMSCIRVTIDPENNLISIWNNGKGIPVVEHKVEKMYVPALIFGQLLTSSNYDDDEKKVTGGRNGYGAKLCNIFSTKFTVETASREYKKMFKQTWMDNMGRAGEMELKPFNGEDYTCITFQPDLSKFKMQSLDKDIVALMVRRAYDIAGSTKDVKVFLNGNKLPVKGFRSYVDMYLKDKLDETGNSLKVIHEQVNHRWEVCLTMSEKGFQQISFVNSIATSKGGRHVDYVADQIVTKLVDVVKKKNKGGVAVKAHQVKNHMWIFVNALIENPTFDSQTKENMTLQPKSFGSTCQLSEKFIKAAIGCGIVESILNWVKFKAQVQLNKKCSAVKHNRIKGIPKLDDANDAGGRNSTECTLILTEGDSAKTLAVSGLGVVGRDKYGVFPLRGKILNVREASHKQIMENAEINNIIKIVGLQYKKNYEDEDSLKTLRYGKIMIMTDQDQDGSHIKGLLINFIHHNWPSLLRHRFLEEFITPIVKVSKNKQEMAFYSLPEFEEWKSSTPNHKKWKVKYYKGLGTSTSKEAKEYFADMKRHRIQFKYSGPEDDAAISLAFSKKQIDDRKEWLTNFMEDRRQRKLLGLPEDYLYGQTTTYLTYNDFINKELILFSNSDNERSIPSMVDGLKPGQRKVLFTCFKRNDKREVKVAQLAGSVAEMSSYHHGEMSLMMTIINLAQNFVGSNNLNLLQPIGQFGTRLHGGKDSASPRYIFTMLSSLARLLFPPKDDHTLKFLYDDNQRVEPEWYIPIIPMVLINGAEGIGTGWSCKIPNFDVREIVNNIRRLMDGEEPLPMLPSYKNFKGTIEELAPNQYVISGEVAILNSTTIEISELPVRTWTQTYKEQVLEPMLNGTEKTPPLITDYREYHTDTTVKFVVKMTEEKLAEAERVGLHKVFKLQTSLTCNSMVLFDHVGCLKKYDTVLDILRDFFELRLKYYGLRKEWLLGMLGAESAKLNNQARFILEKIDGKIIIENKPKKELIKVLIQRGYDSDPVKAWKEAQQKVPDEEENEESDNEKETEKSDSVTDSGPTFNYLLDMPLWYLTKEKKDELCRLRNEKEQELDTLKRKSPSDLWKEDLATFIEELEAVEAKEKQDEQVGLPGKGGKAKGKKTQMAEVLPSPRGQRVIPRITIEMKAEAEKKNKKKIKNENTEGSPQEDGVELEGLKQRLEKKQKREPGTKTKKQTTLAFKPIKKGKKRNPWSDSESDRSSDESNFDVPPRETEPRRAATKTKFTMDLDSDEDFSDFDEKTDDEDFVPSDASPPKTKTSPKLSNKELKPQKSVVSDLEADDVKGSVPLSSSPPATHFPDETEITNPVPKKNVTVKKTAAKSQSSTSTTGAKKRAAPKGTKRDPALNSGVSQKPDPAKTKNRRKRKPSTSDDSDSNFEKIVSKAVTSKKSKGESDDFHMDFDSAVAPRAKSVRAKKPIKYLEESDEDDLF
Experimental: as §3

[6] = tested on: A-549 (epithelial cancer cell line); experiment: Antiproliferative assay, A-549; format: cell-based; details: Homo sapiens, A549; read-out: Antiproliferative activity IC50 ± SEM, A-549
Source text: as §1, §2

[7] = tested on: four cancer cell lines (A-549, MCF-7, Panc-1, HT-29); experiment: Antiproliferative assay, average over the four cancer cell lines (GI50); details: read-out: Antiproliferative activity IC50, Average (mean GI50)
Experimental: as §4, §5

SMILES: O=c1cc(/N=C(\C2CCCC2)N2CCCCC2)c2cc(Cl)ccc2[nH]1 [Compound 4d, (E) 4-((Cyclopentyl(piperidin-1-yl)methylene)amino)-6-chloroquinolin-2(1H)-one]
- viability at 4 days, 50 µM [1]: 92%
- IC50 [2]: 1300 ± 100 nM
- IC50 [3]: 1200 ± 100 nM
- IC50 [4]: 1400 ± 100 nM
- inhibition at 20 µM [5]: 34.7%
- inhibition at 100 µM [5]: 71.6%
- melting point: 248 °C
- inhibition at 20 µM (topo IIα): 21.7%
- inhibition at 100 µM (topo IIα): 54.2%
- IC50 [6]: 1500 ± 100 nM
- IC50 [7]: 1350 nM

SMILES: Cc1cccc2c(/N=C(\C3CCCC3)N3CCCCC3)cc(=O)[nH]c12 [Compound 4e, (E) 4-((Cyclopentyl(piperidin-1-yl)methylene)amino)-8-methylquinolin-2(1H)-one]
- viability at 4 days, 50 µM [1]: 90%
- IC50 [2]: 1200 ± 100 nM
- IC50 [3]: 1100 ± 100 nM
- IC50 [4]: 1200 ± 100 nM
- inhibition at 20 µM [5]: 39.1%
- inhibition at 100 µM [5]: 81.4%
- melting point: 184 °C
- inhibition at 20 µM (topo IIα): 25.6%
- inhibition at 100 µM (topo IIα): 60.4%
- IC50 [6]: 1300 ± 100 nM
- IC50 [7]: 1200 nM

SMILES: COc1ccc2[nH]c(=O)cc(/N=C(\C3CCCC3)N3CCOCC3)c2c1 [Compound 4i, (E) 4-((Cyclopentyl(morpholino)methylene)amino)-6-methoxyquinolin-2(1H)-one]
- viability at 4 days, 50 µM [1]: 89%
- IC50 [2]: 1600 ± 200 nM
- IC50 [3]: 1400 ± 200 nM
- IC50 [4]: 1200 ± 200 nM
- inhibition at 20 µM [5]: 37.2%
- inhibition at 100 µM [5]: 74.9%
- melting point: 247 °C
- inhibition at 20 µM (topo IIα): 23.1%
- inhibition at 100 µM (topo IIα): 56.7%
- IC50 [6]: 1100 ± 200 nM
- IC50 [7]: 1300 nM

SMILES: Cn1c(=O)cc(/N=C(\C2CCCC2)N2CCN(/C(=N/c3cc(=O)n(C)c4ccccc34)C3CCCC3)CC2)c2ccccc21 [Compound 5c, 4,4'-((1E,1′E)-(piperazine-1,4-diylbis(cyclopentylmethanylylidene))bis(azanylylid-ene))bis(1-methylquinolin-2(1H)-one)]
- viability at 4 days, 50 µM [1]: 89%
- IC50 [2]: 900 ± 100 nM
- IC50 [3]: 800 ± 100 nM
- IC50 [4]: 1100 ± 100 nM
- inhibition at 20 µM [5]: 46.7%
- inhibition at 100 µM [5]: 84.8%
- melting point: 342 °C
- inhibition at 100 µM (topo IIα): 23.8%
- IC50 [6]: 1100 ± 100 nM
- IC50 [7]: 1000 nM
